Where two headings read alike, the source gives them in different places.
Tests used:
[1] = biological target: human orexin 1 receptor (Homo sapiens (Human), UniProt O43613); assay: Human orexin 1 receptor radioligand binding (competitive binding, CHO membranes); details: read-out: hOX1 Ki
[2] = biological target: rat orexin 1 receptor (Rattus norvegicus (Rat), UniProt P56718); assay: Rat orexin 1 receptor radioligand binding (competitive binding, HEK293 membranes); details: read-out: rOX1 Ki
[3] = biological target: human orexin 2 receptor (Homo sapiens (Human), UniProt O43614); assay: Human orexin 2 receptor radioligand binding ([3H]-EMPA competition, HEK293 membranes); details: read-out: hOX2 Ki
[4] = human orexin 1 receptor, Table 2, averages from between 2-20 runs
[5] = rat orexin 1 receptor, Table 2, averages from between 2-20 runs
[6] = human orexin 2 receptor, Table 2, averages from between 2-20 runs
[7] = Table 2, further testing, averages from 2-20 runs

Sequence of human orexin 1 receptor (O43613 whole entry): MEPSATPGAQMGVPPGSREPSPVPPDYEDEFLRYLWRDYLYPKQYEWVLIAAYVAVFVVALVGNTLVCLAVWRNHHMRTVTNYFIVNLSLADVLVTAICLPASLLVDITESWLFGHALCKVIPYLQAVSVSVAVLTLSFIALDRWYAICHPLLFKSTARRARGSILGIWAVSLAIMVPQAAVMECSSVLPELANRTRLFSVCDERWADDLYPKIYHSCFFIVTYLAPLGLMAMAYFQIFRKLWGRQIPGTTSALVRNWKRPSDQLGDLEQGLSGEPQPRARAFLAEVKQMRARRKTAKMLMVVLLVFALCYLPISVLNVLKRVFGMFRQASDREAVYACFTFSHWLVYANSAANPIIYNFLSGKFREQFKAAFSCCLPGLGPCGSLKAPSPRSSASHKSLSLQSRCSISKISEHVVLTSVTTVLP
Sequence of human orexin 2 receptor (O43614 whole entry): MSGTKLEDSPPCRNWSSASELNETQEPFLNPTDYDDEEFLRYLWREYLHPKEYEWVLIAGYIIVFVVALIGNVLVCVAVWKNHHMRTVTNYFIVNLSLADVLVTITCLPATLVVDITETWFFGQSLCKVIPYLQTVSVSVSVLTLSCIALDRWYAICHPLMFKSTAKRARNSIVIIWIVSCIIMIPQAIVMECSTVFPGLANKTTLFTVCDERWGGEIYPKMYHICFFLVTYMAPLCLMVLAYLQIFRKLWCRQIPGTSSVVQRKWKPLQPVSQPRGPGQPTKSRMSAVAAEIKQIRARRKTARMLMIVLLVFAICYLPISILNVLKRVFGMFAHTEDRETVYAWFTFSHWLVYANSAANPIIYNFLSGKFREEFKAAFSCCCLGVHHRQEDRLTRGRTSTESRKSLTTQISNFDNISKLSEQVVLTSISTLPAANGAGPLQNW
Sequence of rat orexin 1 receptor (P56718 whole entry): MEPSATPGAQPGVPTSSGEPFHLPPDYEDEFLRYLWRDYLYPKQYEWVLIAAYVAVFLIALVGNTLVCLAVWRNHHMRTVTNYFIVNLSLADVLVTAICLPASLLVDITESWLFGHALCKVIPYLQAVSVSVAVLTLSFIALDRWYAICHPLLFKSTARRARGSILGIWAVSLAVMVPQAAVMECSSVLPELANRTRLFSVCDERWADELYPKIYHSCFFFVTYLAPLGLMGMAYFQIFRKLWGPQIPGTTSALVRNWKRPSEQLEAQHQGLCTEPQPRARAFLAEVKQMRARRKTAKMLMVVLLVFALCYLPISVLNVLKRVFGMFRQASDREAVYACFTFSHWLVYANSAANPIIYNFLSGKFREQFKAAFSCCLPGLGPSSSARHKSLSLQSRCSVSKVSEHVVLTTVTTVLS

Row | SMILES | Ki [1, 7] [nM] | Ki [2, 7] [nM] | Ki [3, 7] [nM] | further results
1 | O=C(c1ccc(F)cc1-c1ncccn1)N1[C@@H]2CC[C@H]1[C@H](Nc1ncc(C(F)(F)F)cn1)C2 [Example 414, (4-fluoro-2-(pyrimidin-2-yl)phenyl)((1S,2R,4R)-2-((5-(trifluoromethyl)pyrimidin-2-yl)amino)-7-azabicyclo[2.2.1]heptan-7-yl)methanone] | – | – | – | Ki [1, 4]: 81 nM; Ki [2, 5]: 160 nM; Ki [3, 6]: 5800 nM
2 | O=C(c1cc(F)ccc1-c1ncccn1)N1[C@@H]2CC[C@H]1[C@H](Nc1ncc(C(F)(F)F)cn1)C2 [Example 415, (5-fluoro-2-(pyrimidin-2-yl)phenyl)((1S,2R,4R)-2-((5-(trifluoromethyl)pyrimidin-2-yl)amino)-7-azabicyclo[2.2.1]heptan-7-yl)methanone] | – | – | – | Ki [1]: 70 nM; Ki [2, 5]: 102 nM; Ki [3]: 2100 nM
3 | O=C(c1c(F)cccc1-c1ncccn1)N1[C@@H]2CC[C@H]1[C@H](Nc1ncc(C(F)(F)F)cn1)C2 [Example 416, (2-fluoro-6-(pyrimidin-2-yl)phenyl)((1S,2R,4R)-2-((5-(trifluoromethyl)pyrimidin-2-yl)amino)-7-azabicyclo[2.2.1]heptan-7-yl)methanone] | – | – | – | Ki [1, 4]: 85 nM; Ki [2, 5]: 138 nM; Ki [3, 6]: 2100 nM
4 | O=C(c1ccccc1-c1ncccn1)N1[C@@H]2CC[C@H]1[C@H](Nc1ncc(C(F)(F)F)cn1)C2 [Example 417, (2-(pyrimidin-2-yl)phenyl)((1S,2R,4R)-2-((5-(trifluoromethyl)pyrimidin-2-yl)amino)-7-azabicyclo[2.2.1]heptan-7-yl)methanone] | – | – | – | Ki [1]: 41 nM; Ki [2]: 52 nM; Ki [3, 6]: 1900 nM
5 | Cc1cnc(C(=O)N2[C@@H]3CC[C@H]2[C@H](Nc2ncc(C(F)(F)F)cc2F)C3)c(-n2nccn2)c1 [Example 420, ((1S,2R,4R)-2-((3-fluoro-5-(trifluoromethyl)pyridin-2-yl)amino)-7-azabicyclo[2.2.1]heptan-7-yl)(5-methyl-3-(2H-1,2,3-triazol-2-yl)pyridin-2-yl)methanone] | – | – | – | Ki [1, 4]: 114 nM; Ki [2, 5]: 100 nM; Ki [3, 6]: 884 nM
6 | O=C(c1ccccc1-n1nccn1)N1[C@@H]2CC[C@H]1[C@H](Nc1ncc(C(F)(F)F)cc1F)C2 [Example 448, (2-(2H-1,2,3-triazol-2-yl)phenyl)((1S,2R,4R)-2-((3-fluoro-5-(trifluoromethyl)pyridin-2-yl)amino)-7-azabicyclo[2.2.1]heptan-7-yl)methanone] | 33 | 41 | 666 | –
7 | O=C(c1cccc(F)c1-n1nccn1)N1[C@@H]2CC[C@H]1[C@H](Nc1ncc(C(F)(F)F)cc1F)C2 [Example 449, (3-fluoro-2-(2H-1,2,3-triazol-2-yl)phenyl)((1S,2R,4R)-2-((3-fluoro-5-(trifluoromethyl)pyridin-2-yl)amino)-7-azabicyclo[2.2.1]heptan-7-yl)methanone] | 41 | 34 | 873 | –
8 | Cc1cccc(C(=O)N2[C@@H]3CC[C@H]2[C@H](Nc2ncc(C(F)(F)F)cc2F)C3)c1-n1nccn1 [Example 450, ((1S,2R,4R)-2-((3-fluoro-5-(trifluoromethyl)pyridin-2-yl)amino)-7-azabicyclo[2.2.1]heptan-7-yl)(3-methyl-2-(2H-1,2,3-triazol-2-yl)phenyl)methanone] | 32 | 14 | 340 | –
9 | Cc1ccc(-n2nccn2)c(C(=O)N2[C@@H]3CC[C@H]2[C@H](Nc2ncc(C(F)(F)F)cc2F)C3)n1 [Example 451, ((1S,2R,4R)-2-((3-fluoro-5-(trifluoromethyl)pyridin-2-yl)amino)-7-azabicyclo[2.2.1]heptan-7-yl)(6-methyl-3-(2H-1,2,3-triazol-2-yl)pyridin-2-yl)methanone] | – | – | 517 | Ki [1]: 84 nM; Ki [2]: 82 nM
10 | Cc1ccc(C(=O)N2[C@@H]3CC[C@H]2[C@H](Nc2ncc(C(F)(F)F)cc2F)C3)c(-n2nccn2)n1 [Example 452, ((1S,2R,4R)-2-((3-fluoro-5-(trifluoromethyl)pyridin-2-yl)amino)-7-azabicyclo[2.2.1]heptan-7-yl)(6-methyl-2-(2H-1,2,3-triazol-2-yl)pyridin-3-yl)methanone] | 223 | 176 | 437 | –
11 | Cc1cnc(-n2nccn2)c(C(=O)N2[C@@H]3CC[C@H]2[C@H](Nc2ncc(C(F)(F)F)cc2F)C3)c1 [Example 453, ((1S,2R,4R)-2-((3-fluoro-5-(trifluoromethyl)pyridin-2-yl)amino)-7-azabicyclo[2.2.1]heptan-7-yl)(5-methyl-2-(2H-1,2,3-triazol-2-yl)pyridin-3-yl)methanone] | 305 | 210 | > 10000 | –
12 | O=C(c1cccc(F)c1-c1ncco1)N1[C@@H]2CC[C@H]1[C@H](Nc1ncc(C(F)(F)F)cc1F)C2 [Example 454, (3-fluoro-2-(oxazol-2-yl)phenyl)((1S,2R,4R)-2-((3-fluoro-5-(trifluoromethyl)pyridin-2-yl)amino)-7-azabicyclo[2.2.1]heptan-7-yl)methanone] | 23 | 18 | 590 | –
13 | Cc1ccc(-c2ncccn2)c(C(=O)N2[C@@H]3CC[C@H]2[C@H](Nc2ncc(C(F)(F)F)cc2F)C3)n1 [Example 456, ((1S,2R,4R)-2-((3-fluoro-5-(trifluoromethyl)pyridin-2-yl)amino)-7-azabicyclo[2.2.1]heptan-7-yl)(6-methyl-3-(pyrimidin-2-yl)pyridin-2-yl)methanone] | – | – | 454 | Ki [1]: 48 nM; Ki [2]: 68 nM
14 | Cc1cnc(C(=O)N2[C@@H]3CC[C@H]2[C@H](Nc2ncc(C(F)(F)F)cc2F)C3)c(-c2ncccn2)c1 [Example 457, ((1S,2R,4R)-2-((3-fluoro-5-(trifluoromethyl)pyridin-2-yl)amino)-7-azabicyclo[2.2.1]heptan-7-yl)(5-methyl-3-(pyrimidin-2-yl)pyridin-2-yl)methanone] | 98 | 55 | 9100 | –
15 | O=C(c1ncccc1-c1ncccn1)N1[C@@H]2CC[C@H]1[C@H](Nc1ncc(C(F)(F)F)cc1F)C2 [Example 458, ((1S,2R,4R)-2-((3-fluoro-5-(trifluoromethyl)pyridin-2-yl)amino)-7-azabicyclo[2.2.1]heptan-7-yl)(3-(pyrimidin-2-yl)pyridin-2-yl)methanone] | 45 | 46 | 932 | –
16 | O=C(c1c(F)cccc1-c1ncccn1)N1[C@@H]2CC[C@H]1[C@H](Nc1ncc(C(F)(F)F)cc1F)C2 [Example 459, ((1S,2R,4R)-2-((3-fluoro-5-(trifluoromethyl)pyridin-2-yl)amino)-7-azabicyclo[2.2.1]heptan-7-yl)(2-fluoro-6-(pyrimidin-2-yl)phenyl)methanone] | 71 | 26 | 530 | –
17 | O=C(c1ccccc1-c1ncc(F)cn1)N1[C@@H]2CC[C@H]1[C@H](Nc1ncc(C(F)(F)F)cc1F)C2 [Example 460, ((1S,2R,4R)-2-((3-fluoro-5-(trifluoromethyl)pyridin-2-yl)amino)-7-azabicyclo[2.2.1]heptan-7-yl)(2-(5-fluoropyrimidin-2-yl)phenyl)methanone] | 41 | 57 | 1300 | –
18 | O=C(c1ccccc1-c1ncccn1)N1[C@@H]2CC[C@H]1[C@H](Nc1ncc(C(F)(F)F)cc1F)C2 [Example 461, ((1S,2R,4R)-2-((3-fluoro-5-(trifluoromethyl)pyridin-2-yl)amino)-7-azabicyclo[2.2.1]heptan-7-yl)(2-(pyrimidin-2-yl)phenyl)methanone] | 24 | 30 | 760 | –
19 | Cc1cccc(C(=O)N2[C@@H]3CC[C@H]2[C@H](Nc2ncc(C(F)(F)F)cc2F)C3)c1-c1ncccn1 [Example 462, ((1S,2R,4R)-2-((3-fluoro-5-(trifluoromethyl)pyridin-2-yl)amino)-7-azabicyclo[2.2.1]heptan-7-yl)(3-methyl-2-(pyrimidin-2-yl)phenyl)methanone] | 31 | 18 | 339 | –
20 | O=C(c1cccc(F)c1-c1ncc(F)cn1)N1[C@@H]2CC[C@H]1[C@H](Nc1ncc(C(F)(F)F)cc1F)C2 [Example 463, (3-fluoro-2-(5-fluoropyrimidin-2-yl)phenyl)((1S,2R,4R)-2-((3-fluoro-5-(trifluoromethyl)pyridin-2-yl)amino)-7-azabicyclo[2.2.1]heptan-7-yl)methanone] | – | – | 1900 | Ki [1]: 50 nM; Ki [2]: 53 nM

Reference: US9637496B2, “Substituted 7-azabicycles and their use as orexin receptor modulators” (priority 2013, dated 2017)
